The test system of experiment [1] is TNFα. The experiment is described as follows: cells. The format is cell-based, human. The note with it: Homo sapiens, Monocyte, LPS-stimulated human monocytes, TNFα content; read-out: EC50 TNF.
Experiment [2] has as its target IRAK4 enzyme (Homo sapiens (Human), UniProt Q9NWZ3). The experiment is described as follows: biochemical. Format: biochemical. As to conditions: IRAK4 enzyme, TR-FRET, 500 μM ATP. (In general: Time-resolved FRET reads energy transfer from a long-lived donor to a nearby acceptor.)

For 24 compounds, EC50 and IC50 results are on record in patent publication US10336762B2 (priority 2017, dated 2019).

Bounds are passed on as bounds.

IRAK4 enzyme, sequence (Q9NWZ3 whole entry): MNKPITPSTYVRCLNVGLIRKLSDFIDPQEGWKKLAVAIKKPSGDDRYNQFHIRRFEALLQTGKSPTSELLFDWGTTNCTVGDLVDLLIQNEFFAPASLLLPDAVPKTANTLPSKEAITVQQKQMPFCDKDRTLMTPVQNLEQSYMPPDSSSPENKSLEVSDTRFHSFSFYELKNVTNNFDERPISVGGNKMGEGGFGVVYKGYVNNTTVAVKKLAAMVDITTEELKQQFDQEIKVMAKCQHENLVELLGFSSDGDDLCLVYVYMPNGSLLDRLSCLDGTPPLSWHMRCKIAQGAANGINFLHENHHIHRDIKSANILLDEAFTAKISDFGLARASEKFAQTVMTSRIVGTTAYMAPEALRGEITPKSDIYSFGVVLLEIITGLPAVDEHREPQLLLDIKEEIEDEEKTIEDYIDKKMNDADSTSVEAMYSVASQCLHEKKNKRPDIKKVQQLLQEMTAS

As usually defined, the EC50 is the concentration that produces a half-maximal response. Broadly, the IC50 is the point on the concentration scale where inhibition reaches its midpoint. Higher therefore signals weaker potency in that assay. For `CC(C)(O)[C@H](F)CNC(=O)c1cnc(-c2ccc3cc(C#N)cnn23)cc1Nc1ccc(CN2CCCC2=O)cc1` [Example 200, (R)-6-(3-cyanopyrrolo[1,2-b]pyridazin-7-yl)-N-(2-fluoro-3-hydroxy-3-methylbutyl)-4-((4-((2-oxopyrrolidin-1-yl)methyl)phenyl)amino) nicotinamide], the EC50 in experiment [1] was 15 nM. Besides, half-maximal inhibition in experiment [2] (IC50) was put at 1 nM.
For `CC(C)(O)[C@H](F)CNC(=O)c1cnc(-c2ccc3cc(C#N)cnn23)cc1Nc1ccc(CN2CCOC2=O)cc1` [Example 201, (R)-6-(3-cyanopyrrolo[1,2-b]pyridazin-7-yl)-N-(2-fluoro-3-hydroxy-3-methylbutyl)-4-((4-((2-oxooxazolidin-3-yl)methyl)phenyl)amino) nicotinamide], in that order: 11 nM and 1 nM.
For `CC(C)(O)[C@H](F)CNC(=O)c1cnc(-c2ccc3cc(C#N)cnn23)cc1Nc1ccc(CNC(=O)C2CC2)cc1` [Example 202, (R)-6-(3-cyanopyrrolo[1,2-b]pyridazin-7-yl)-4-((4-(cyclopropane-carboxamidomethyl)phenyl)amino)-N-(2-fluoro-3-hydroxy-3-methylbutyl)nicotinamide], in that order: 22 nM and less than 1 nM.
As to `CC(C)C(=O)NCc1ccc(Nc2cc(-c3ccc4cc(C#N)cnn34)ncc2C(=O)NC[C@@H](F)C(C)(C)O)cc1` [Example 203, (R)-6-(3-cyanopyrrolo[1,2-b]pyridazin-7-yl)-N-(2-fluoro-3-hydroxy-3-methylbutyl)-4-((4-(isobutyramidomethyl)phenyl)amino) nicotinamide], the EC50 in experiment [1] is 44 nM. For the same compound, the IC50 in experiment [2] was less than 1 nM.
For `CCC(=O)NCc1ccc(Nc2cc(-c3ccc4cc(C#N)cnn34)ncc2C(=O)NC[C@@H](F)C(C)(C)O)cc1` [Example 204, (R)-6-(3-cyanopyrrolo[1,2-b]pyridazin-7-yl)-N-(2-fluoro-3-hydroxy-3-methylbutyl)-4-((4-(propionamido-methyl)phenyl)amino)nicotinamide], in that order: 27 nM and less than 1 nM.
For `CC(C)(O)[C@H](F)CNC(=O)c1cnc(-c2ccc3cc(C#N)cnn23)cc1Nc1ccc(CN2CC(F)(F)C2)cc1` [Example 205, (R)-6-(3-cyanopyrrolo[1,2-b]pyridazin-7-yl)-4-((4-((3,3-difluoroazetidin-1-yl)methyl)phenyl)amino)-N-(2-fluoro-3-hydroxy-3-methylbutyl) nicotinamide], in that order: 115 nM and 1 nM.
For `CC(C)(O)[C@H](F)CNC(=O)c1cnc(-c2ccc3cc(C#N)cnn23)cc1Nc1cnn([C@@H]2CCN(C3COC3)C2)c1` [Example 206, 6-(3-cyanopyrrolo[1,2-b]pyridazin-7-yl)-N-((R)-2-fluoro-3-hydroxy-3-methylbutyl)-4-((1-((R)-1-(oxetan-3-yl)pyrrolidin-3-yl)-1H-pyrazol-4-yl)amino)nicotinamide], in that order: 133 nM and 1 nM.
For `Cc1ncc(-c2ccc(Nc3cc(-c4ccc5cc(C#N)cnn45)ncc3C(=O)NC[C@@H](F)C(C)(C)O)cc2)o1` [Example 207, (R)-6-(3-cyanopyrrolo[1,2-b]pyridazin-7-yl)-N-(2-fluoro-3-hydroxy-3-methylbutyl)-4-((4-(2-methyloxazol-5-yl)phenyl)amino) nicotinamide], the EC50 in experiment [1] is 96 nM. This compound also registered an IC50 in experiment [2] of 1 nM.
In the same order, the values of `CC(C)(O)[C@H](F)CNC(=O)c1cnc(-c2ccc3cc(C#N)cnn23)cc1Nc1cnn([C@@H]2CCNC2)c1` [Example 208, 6-(3-cyanopyrrolo[1,2-b]pyridazin-7-yl)-N-((R)-2-fluoro-3-hydroxy-3-methylbutyl)-4-((1-((R)-pyrrolidin-3-yl)-1H-pyrazol-4-yl)amino) nicotinamide] are 92 nM and less than 1 nM.
Take `Cc1nnc(-c2ccc(Nc3cc(-c4ccc5cc(C#N)cnn45)ncc3C(=O)NC[C@@H](F)C(C)(C)O)cc2)o1` [Example 209, (R)-6-(3-cyanopyrrolo[1,2-b]pyridazin-7-yl)-N-(2-fluoro-3-hydroxy-3-methylbutyl)-4-((4-(5-methyl-1,3,4-oxadiazol-2-yl)phenyl)amino) nicotinamide]: in experiment [1], the EC50 came to 84 nM. The IC50 in experiment [2] is less than 1 nM.
For `Cn1cncc1-c1ccc(Nc2cc(-c3ccc4cc(C#N)cnn34)ncc2C(=O)NC[C@@H](F)C(C)(C)O)cc1` [Example 210, (R)-6-(3-cyanopyrrolo[1,2-b]pyridazin-7-yl)-N-(2-fluoro-3-hydroxy-3-methylbutyl)-4-((4-(1-methyl-1H-imidazol-5-yl)phenyl)amino) nicotinamide], in that order: 39 nM and less than 1 nM.
For `CC(=O)NC1(c2ccc(Nc3cc(-c4ccc5cc(C#N)cnn45)ncc3C(=O)NC[C@@H](F)C(C)(C)O)cc2)CC1` [Example 211, (R)-4-((4-(1-acetamidocyclo-propyl)phenyl)amino)-6-(3-cyanopyrrolo[1,2-b]pyridazin-7-yl)-N-(2-fluoro-3-hydroxy-3-methylbutyl)nicotinamide], in that order: 50 nM and 1 nM.
`COC(=O)NC1(c2ccc(Nc3cc(-c4ccc5cc(C#N)cnn45)ncc3C(=O)NC[C@@H](F)C(C)(C)O)cc2)CC1` [Example 212, (R)-methyl (1-(4-((2-(3-cyanopyrrolo[1,2-b]pyridazin-7-yl)-5-((2-fluoro-3-hydroxy-3-methylbutyl)carbamoyl)pyridin-4-yl)amino)phenyl)cyclopropyl)carbamate]: the 50% effective concentration (EC50) in experiment [1] is 13 nM. In experiment [2], this compound came in with an IC50 of less than 1 nM.
For `CC(C)(O)[C@H](F)CNC(=O)c1cnc(-c2ccc3cc(C#N)cnn23)cc1Nc1ccc(N2CCNCC2)nc1` [Example 213, (R)-6-(3-cyanopyrrolo[1,2-b]pyridazin-7-yl)-N-(2-fluoro-3-hydroxy-3-methylbutyl)-4-((6-(piperazin-1-yl)pyridin-3-yl)amino) nicotinamide], the EC50 in experiment [1] was 51 nM. The same compound registered an IC50 in experiment [2] of less than 1 nM.
With `COC(=O)NC(C)(C)c1ccc(Nc2cc(-c3ccc4cc(C#N)cnn34)ncc2C(=O)NC[C@@H](F)C(C)(C)O)cc1` [Example 214, (R)-methyl(2-(4-((2-(3-cyanopyrrolo[1,2-b]pyridazin-7-yl)-5-((2-fluoro-3-hydroxy-3-methylbutyl)carbamoyl)pyridin-4-yl)amino)phenyl)propan-2-yl)carbamate], the EC50 in experiment [1] came out at 36 nM. The compound also came in with an IC50 in experiment [2] of 3 nM.
For `CC(=O)NC(C)(C)c1ccc(Nc2cc(-c3ccc4cc(C#N)cnn34)ncc2C(=O)NC[C@@H](F)C(C)(C)O)cc1` [Example 215, (R)-4-((4-(2-acetamido-propan-2-yl)phenyl)amino)-6-(3-cyanopyrrolo[1,2-b]pyridazin-7-yl)-N-(2-fluoro-3-hydroxy-3-methylbutyl)nicotinamide], in that order: 53 nM and 2 nM.
`CC(C)(O)[C@H](F)CNC(=O)c1cnc(-c2ccc3cc(C#N)cnn23)cc1Nc1ccc(-c2cnco2)cc1` [Example 216, (R)-6-(3-cyanopyrrolo[1,2-b]pyridazin-7-yl)-N-(2-fluoro-3-hydroxy-3-methylbutyl)-4-((4-(oxazol-5-yl)phenyl)amino) nicotinamide]: in experiment [1], the EC50 came out at 32 nM. Further, the IC50 in experiment [2] was less than 1 nM.
For `CC(C)(O)[C@H](F)CNC(=O)c1cnc(-c2ccc3cc(C#N)cnn23)cc1Nc1cncc(OC(F)F)c1` [Example 217, (R)-6-(3-cyanopyrrolo[1,2-b]pyridazin-7-yl)-4-((5-(difluoromethoxy)pyridin-3-yl)amino)-N-(2-fluoro-3-hydroxy-3-methylbutyl)nicotinamide], in that order: 63 nM and less than 1 nM.
In the same order, the values of `Cc1nnc(-c2ccc(Nc3cc(-c4ccc5cc(C#N)cnn45)ncc3C(=O)NC[C@@H](F)C(C)(C)O)cc2)[nH]1` [Example 218, (R)-6-(3-cyanopyrrolo[1,2-b]pyridazin-7-yl)-N-(2-fluoro-3-hydroxy-3-methylbutyl)-4-((4-(5-methyl-4H-1,2,4-triazol-3-yl)phenyl)amino) nicotinamide] are 41 nM and less than 1 nM.
Turning to `CC(C)(O)[C@H](F)CNC(=O)c1cnc(-c2ccc3cc(C#N)cnn23)cc1Nc1cccc(-c2cnc[nH]2)c1` [Example 219, (R)-4-((3-(1H-imidazol-5-yl)phenyl)amino)-6-(3-cyanopyrrolo[1,2-b]pyridazin-7-yl)-N-(2-fluoro-3-hydroxy-3-methylbutyl)nicotinamide], the EC50 in experiment [1] worked out at 209 nM. The compound also showed an IC50 in experiment [2] of 1 nM.
For `CC(=O)NCc1cccc(Nc2cc(-c3ccc4cc(C#N)cnn34)ncc2C(=O)NC[C@@H](F)C(C)(C)O)c1` [Example 220, (R)-4-((3-(acetamidomethyl)phenyl)amino)-6-(3-cyanopyrrolo[1,2-b]pyridazin-7-yl)-N-(2-fluoro-3-hydroxy-3-methylbutyl)nicotinamide], in that order: 123 nM and 1 nM.
For `CC(C)(O)[C@H](F)CNC(=O)c1cnc(-c2ccc3cc(C#N)cnn23)cc1Nc1cccc(-c2ncc[nH]2)c1` [Example 221, (R)-4-((3-(1H-imidazol-2-yl)phenyl)amino)-6-(3-cyanopyrrolo[1,2-b]pyridazin-7-yl)-N-(2-fluoro-3-hydroxy-3-methylbutyl)nicotinamide], in that order: 98 nM and less than 1 nM.
In the case of `CC(C)(O)[C@H](F)CNC(=O)c1cnc(-c2ccc3cc(C#N)cnn23)cc1Nc1cncc(C2CC2)c1` [Example 222, (R)-6-(3-cyanopyrrolo[1,2-b]pyridazin-7-yl)-4-((5-cyclopropylpyridin-3-yl)amino)-N-(2-fluoro-3-hydroxy-3-methylbutyl)nicotinamide], the EC50 in experiment [1] worked out at 151 nM. The compound further displayed an IC50 in experiment [2] of 1 nM.
In the same order, the values of `CC(C)(O)[C@H](F)CNC(=O)c1cnc(-c2ccc3cc(C#N)cnn23)cc1Nc1cnn([C@H]2CCNC2)c1` [Example 223, 6-(3-cyanopyrrolo[1,2-b]pyridazin-7-yl)-N-((R)-2-fluoro-3-hydroxy-3-methylbutyl)-4-((1-((S)-pyrrolidin-3-yl)-1H-pyrazol-4-yl)amino) nicotinamide] are 13 nM and less than 1 nM.
